The values below come from US7763616B2, “Piperazine-piperidines with CXCR3 antagonist activity” (Schering Corporation, priority 2005, dated 2010).

pIC50: −log10 of the molar value. Bounds are passed on as bounds.

The target of one test is T1, human CXCR3 (N-delta 4) (Homo sapiens, UniProt P49682).
T1 construct: CD8 leader (N); Flag tag; expressed in transfected cells; membrane preparation
T1 sequence (P49682 5-368 limits assumed): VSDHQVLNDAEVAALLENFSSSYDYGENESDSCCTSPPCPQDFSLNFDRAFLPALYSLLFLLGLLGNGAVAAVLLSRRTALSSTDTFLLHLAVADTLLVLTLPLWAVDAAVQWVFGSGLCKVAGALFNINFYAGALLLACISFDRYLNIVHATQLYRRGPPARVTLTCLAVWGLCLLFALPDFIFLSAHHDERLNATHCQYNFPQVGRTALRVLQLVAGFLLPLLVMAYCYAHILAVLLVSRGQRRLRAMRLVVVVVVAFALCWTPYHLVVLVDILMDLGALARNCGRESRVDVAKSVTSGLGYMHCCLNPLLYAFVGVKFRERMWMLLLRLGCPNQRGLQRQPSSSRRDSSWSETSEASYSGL
As to the kind of experiment: Human CXCR3 (N-delta 4) Scintillation Proximity Assay (SPA), [125I] IP-10 binding. The conditions noted are these: Ba/F3-hCXCR3 (N-delta 4) membranes, 25 pM [125I] IP-10; read-out: IC50 value. The text has this: The inventive compounds can readily be evaluated to determine activity at the CXCR3 receptors by known methods, such as, for example, development of a human CXCR3 (N-delta 4) Binding Assay.
Cloning and Expression of Human CXCR3 (N-delta 4):
The DNA encoding human CXCR3 was cloned by PCR using human genomic DNA (Promega, Madison, Wis.) as a template. The PCR primers were designed based on the published sequence of human orphan receptor GPR9 (1) with incorporated restriction sites, a Kozak consensus sequence, CD8 leader and Flag tag. The PCR product was subcloned into the mammalian expression vector pME18Sneo, a derivative of the SR-alpha expression vector (designated as pME18Sneo-hCXCR3 (N-delta 4).
IL-3-dependent mouse pro-B cells Ba/F3 were transfected by electroporation in 0.4 ml Dulbecco's PBS containing 4×10^6 cells with 20 μg of pME18Sneo-hCXCR3 (N-delta 4) plasmid DNA. Cells were pulsed at 400 Volts, 100 OHMs, […]. The transfected cells were under selection with 1 mg/ml G418 (Life Technologies, Gaithersburg, Md.). G418-resistant Ba/F3 clones were screened for CXCR3 expression by specific binding of [^125I] IP10 (NEN Life Science Products, Boston, Mass.).
Preparation of Ba/F3-hCXCR3 (N-delta 4) Membranes:
Ba/F3 cells expressing human CXCR3 (N-delta 4) were pelleted and resuspended in the lysis buffer containing 10 mM HEPES, pH 7.5 and Complete® protease inhibitors (1 tablet per 100 ml) (Boehringer Mannheim, Indianapolis, Ind.) at a cell density of 20×10^6 cells per ml. After 5 minute incubation on ice, cells were transferred to 4639 cell disruption bomb (Parr Instrument, Moline, Ill.) and applied with 1,500 psi of nitrogen for 30 minutes on ice. Large cellular debris was removed by centrifugation at 1,000×g. Cell membrane in the supernatant was sedimented at 100,000×g. The membrane was resuspended in the lysis buffer supplemented with 10% sucrose and stored at −80° C. Total protein concentration of the membrane was determined by BCA method from Pierce (Rockford, Ill.).
Human CXCR3 (N-delta 4) Scintillation Proximity Assay (SPA):
For each assay point, 2 μg of membrane was preincubated for 1 hr with 300 μg wheat germ agglutinin (WGA) coated SPA beads (Amersham, Arlington Heights, Ill.) in the binding buffer (50 mM HEPES, 1 mM CaCl2, 5 mM MgCl2, 125 mM NaCl, 0.002% NaN3, 1.0% BSA) at room temperature. The beads were spun down, washed once, resuspended in the binding buffer and transferred to a 96-well Isoplate (Wallac, Gaithersburg, Md.). 25 pM of [^125I] IP-10 with tested compounds in a series of titration were added to start the reaction. After 3 hr reaction at room temperature, the amount of [^125I] IP10 bound to the SPA beads was determined with a Wallac 1450 Microbeta counter.
(In a scintillation proximity assay essentially only radioactivity close to the scintillant gives light.)
One may read the pIC50 as the negative decadic logarithm of the IC50, by convention in mol/L. Take `CC[C@H]1CN(c2nc3c(nc2Cl)CNc2c(c(=O)c2=O)N3)CCN1C1CCN(Cc2ccc(Cl)cc2F)CC1` [Compound 1]: the pIC50 was 9.52.

Staying with this test, now noted: IC50 ratings; Ba/F3-hCXCR3 (N-delta 4) membranes, 25 pM [125I] IP-10; read-out: IC50.
Take `CC[C@H]1CN(c2nc3[nH]c(=O)[nH]c3nc2Cl)CCN1C1CCN(Cc2ccc(Cl)cc2C#N)CC1` [Compound 13]: the pIC50 is > 7.60. Turning to `CC[C@H]1CN(c2nc3c(nc2Cl)CN/C(=N\C#N)N3)CCN1C1CCN(Cc2ccc(Cl)cc2F)CC1` [Compound 5], the pIC50 is > 7.60. `CC[C@H]1CN(c2nc3[nH]c(=O)n(Cc4ccc(Cl)cc4C#N)c3nc2Cl)CCN1C1CCN(Cc2ccc(Cl)cc2C#N)CC1` [Compound 26]: the negative logarithm of the IC50 (pIC50) was < 7.00.

As to `CC[C@H]1CN(c2nc3nc(C)n(CC)c(=O)c3nc2Cl)CCN1C1CCN(Cc2ccc(Cl)cc2F)CC1` [Compound 23], the negative logarithm of the IC50 (pIC50) was 7.00 to 7.60. As for `CC[C@H]1CN(c2cc3c(cc2Cl)nc(NS(C)(=O)=O)n3S(C)(=O)=O)CCN1C1CCN(Cc2ccc(Cl)cc2F)CC1` [Compound 35], the pIC50 was < 7.00.

Regarding `CC[C@H]1CN(c2cc3[nH]cnc3cc2Cl)CCN1C1CCN(Cc2ccc(Cl)cc2F)CC1` [Compound 25], the negative-log IC50 (pIC50) was < 7.00.

For `CC[C@H]1CN(c2nc3c(nc2Cl)CNc2c(c(=O)c2=O)N3)CCN1C1CCN(Cc2ccc(Cl)cc2F)CC1` [Compound 1], the pIC50 is > 7.60. With `CC[C@H]1CN(c2nc3[nH]c(=O)[nH]c3nc2Cl)CCN1C1CCN(Cc2ccc(Cl)cc2)CC1` [Compound 2], the negative logarithm of the IC50 (pIC50) is > 7.60. With `CC[C@H]1CN(c2nc3[nH]c(=O)n(C(=O)OC(C)(C)C)c3nc2Cl)CCN1C1CCN(Cc2ccc(Cl)cc2)CC1` [Compound 8], the negative logarithm of the IC50 (pIC50) was > 7.60. Same read-out and setting: in the case of `CC[C@H]1CN(c2nc3[nH]c(=O)[nH]c3nc2Cl)CCN1C1CCN([C@@H](CO)c2ccc(Cl)cc2)CC1` [Compound 3] it was > 7.60.

On to `CC[C@H]1CN(c2nc3[nH]c(=O)[nH]c3nc2Cl)CCN1C1CCN(C(=O)c2ccc(Cl)nc2N)CC1` [Compound 12], for which the pIC50 is > 7.60. As to `CC[C@H]1CN(c2nc3c(nc2Cl)CNC(=O)N3)CCN1C1CCN(Cc2ccc(Cl)cc2F)CC1` [Compound 4], the pIC50 was > 7.60.

As to `CC[C@H]1CN(c2cc3[nH]c(-c4ccccc4)nc3cc2Cl)CCN1C1CCN(Cc2ccc(Cl)cc2F)CC1` [Compound 32], the pIC50 was < 7.00. The same measure, in the same setting: the result for `CC[C@H]1CN(c2nc3[nH]c(=O)[nH]c3nc2Cl)CCN1C1CCN(Cc2ccc(-n3cccn3)cc2)CC1` [Compound 17] reads > 7.60. With `CC[C@H]1CN(c2cc3[nH]c(C(F)(F)F)nc3cc2Cl)CCN1C1CCN(Cc2ccc(Cl)cc2F)CC1` [Compound 9], the negative logarithm of the IC50 (pIC50) is > 7.60. Turning to `CC[C@H]1CN(c2cc3c(cc2Cl)nc(C(F)(F)F)n3C)CCN1C1CCN(Cc2ccc(Cl)cc2F)CC1` [Compound 37], the pIC50 was < 7.00. With `CCc1nc2nc(N3CCN(C4CCN(Cc5ccc(Cl)cc5F)CC4)[C@@H](CC)C3)c(Cl)nc2c(=O)n1CC` [Compound 15], the pIC50 is > 7.60. `CC[C@H]1CN(c2nc3c(nc2Cl)C(=O)NCCNC(=O)N3)CCN1C1CCN(C(=O)c2ccc(Cl)nc2N)CC1` [Compound 34]: the pIC50 was < 7.00.

Turning to `CC[C@H]1CN(c2nc3[nH]c(=O)[nH]c3nc2Cl)CCN1C1CCN([C@H](CO)c2ccc(Cl)cc2)CC1` [Compound 11], the pIC50 is > 7.60. For `CC[C@H]1CN(c2nc3ncn(CC)c(=O)c3nc2Cl)CCN1C1CCN(Cc2ccc(Cl)cc2)CC1` [Compound 20], the pIC50 was 7.00 to 7.60. On to `CC[C@H]1CN(c2nc3[nH]c(=O)n(C)c(=O)c3nc2Cl)CCN1C1CCN(Cc2ccc(Cl)cc2)CC1` [Compound 7], for which the negative-log IC50 (pIC50) was > 7.60.

Turning to `CC[C@H]1CN(c2nc3[nH]c(=O)[nH]c3nc2Cl)CCN1C1CCN(C(C#N)c2ccc(Cl)cc2)CC1` (mixture of isomers) [Compound 33], the pIC50 is < 7.00. Regarding `CC[C@H]1CN(c2nc3c(nc2Cl)[nH]c(=O)n3Cc2ccc(Cl)cc2C#N)CCN1C1CCN(Cc2ccc(Cl)cc2C#N)CC1` [Compound 22], the pIC50 is 7.00 to 7.60. In the case of `CC[C@H]1CN(c2cc3[nH]c(=O)[nH]c3cc2Cl)CCN1C1CCN(Cc2ccc(Cl)cc2F)CC1` [Compound 21], the pIC50 is 7.00 to 7.60. Consider `CC[C@H]1CN(c2nc3[nH]c(=O)[nH]c3nc2Cl)CCN1C1CCN(C(=O)c2ccc(Cl)cc2)CC1` [Compound 19], for which the pIC50 is 7.00 to 7.60. Same read-out and setting: the result for `CC[C@H]1CN(c2nc3c(nc2Cl)C(=O)NCCN3)CCN1C1CCN(C(=O)c2ccc(Cl)nc2N)CC1` [Compound 18] reads 7.00 to 7.60; that for `CC[C@H]1CN(c2cc3[nH]c(=O)c(=O)[nH]c3cc2Cl)CCN1C1CCN(Cc2ccc(Cl)cc2F)CC1` [Compound 29], < 7.00. With `CC[C@H]1CN(c2nc3c(nc2Cl)CNC(=O)N3)CCN1C1CCN(C(=O)c2ccc(Cl)nc2N)CC1` [Compound 16], the pIC50 was > 7.60. In the case of `CCc1nc2nc(N3CCN(C4CCN(Cc5ccc(Cl)cc5F)CC4)[C@@H](CC)C3)c(O)nc2c(=O)n1CC` [Compound 38], the pIC50 was < 7.00.

As to `CC[C@H]1CN(c2cc3[nH]cnc3cc2Cl)CCN1C1CCN(Cc2ccc(Cl)cc2F)CC1` [Compound 24], the negative-log IC50 (pIC50) was 7.00 to 7.60.

Turning to `CCNC(=O)n1cnc2cc(Cl)c(N3CCN(C4CCN(Cc5ccc(Cl)cc5F)CC4)[C@@H](CC)C3)cc21` [Compound 31], the pIC50 was < 7.00. In the case of `CC[C@H]1CN(c2nc3[nH]c(=O)[nH]c3nc2Cl)CCN1C1CCN([C@H](C(=O)OC)c2ccc(Cl)cc2)CC1` [Compound 30], the negative-log IC50 (pIC50) is < 7.00. As for `CC[C@H]1CN(c2cc3[nH]c(=S)[nH]c3cc2Cl)CCN1C1CCN(Cc2ccc(Cl)cc2F)CC1` [Compound 28], the pIC50 is < 7.00.

Consider `CC[C@H]1CN(c2nc3[nH]c(=O)[nH]c3nc2Cl)CCN1C1CCN(Cc2ccc(Cl)cc2F)CC1` [Compound 6], for which the pIC50 is > 7.60.
